One assay relates to mESC-derived neurons. The assay can be described thus: Single-cell RNA sequencing of day 9 cultures, assignment of dI identities. The class given is cell-based, mouse. Conditions: scRNA-Seq. The procedure:
Preparation of single cell suspension: Day 9 cultures from both protocol1 (RA) and protocol3 (RA+BMP4) were dissociated with 0.25% cold trypsin for 5 mins. Trypsin activity was stopped with the addition of trypsin inhibitor (Sigma-Aldrich) in 1:1 ratio. Cells were then pelleted by centrifugation at 1000RPM and resuspended in 1× PBS. The ratio of viable cells was determined using Trypan blue staining. Dead cells were removed using MACS dead cell removal kit (Miltenyi Biotec Inc.) by following the manufacturer's protocol. Eluted live cells were then suspended in 1× PBS containing 0.04% BSA solution (400 μg/ml) for the library preparation.
Library preparation, and sequencing: ~10,000 live cells/conditions were used to construct single-cell specific cDNA libraries using protocol described in 10× Genomics chromium single cell 3′ reagent kit (v3.1 Chemistry). Briefly, cells were partitioned into nanoliter-scale Gel-Beads-in-emulsion (GEM) using the 10× Chromium controller. Each GEM contains a unique barcode which is shared among the cDNA generated from a single cell. Cells were then lysed, and cDNA synthesis and feature barcoding were performed in the GEMs. The sequencing libraries were recovered using Magnetic separation and the quantity and quality of cDNA were assessed by Agilent 2100 expert High Sensitivity DNA Assay. cDNA samples were sequenced on 1 lane of NovaSeq 6000 S2 flow cell and reads were mapped to mouse mm10 genome using Cell Ranger v.3.0.2 to generate fasq files.
Filtering genes and cells: Seurat package v3.1.1 was used for the analysis. For each condition, genes expressing in less than 3 cells were removed and cells with >250 features were retained. PCA was used for dimension reduction (npcs=50) with top 3000 most variable genes. Raw count data were normalized using regularized negative binomial regression with SCT transformation. Cell clustering is done using Shared Nearest Neighbor (SNN) Graph method and cluster specific markers were identified by Wilcox Rank Sum test.
Each cell cluster was annotated by a combination of the following methods 1) the expression of known canonical cell-type markers 2) Gene Set Enrichment Analysis (GSEA) of cluster specific markers determined by FindMarkers function in Seurat.
Reclustering of neuronal clusters: From the entire single-cell dataset, neuronal cells were first identified by the expression of pan-neuronal markers-Tubb3 and Elavl1/2. Roughly 30% cells express these markers in both protocol 1 and protocol 3 and were thus annotated as the mature neurons. The neuronal populations were then extracted using the Seurat package in R, by clustering the cells expressing Tubb3 >2 (median normalized log expression levels) using the Shared Nearest Neighbor (SNN) Graph method. […] Clusters were visualized with Uniform Manifold Approximation Projection (UMAP) method and the unique cluster-specific markers were identified using FindMarker function in Seurat.
To assess whether protocols 1 and 3 direct distinct classes of dIs, we obtained single-cell transcriptomes from 9,704 cells using protocol 1 and 13,121 cells using protocol 3, taken at day 9 of the differentiation procedure (FIG. 2A). We performed Louvain clustering followed by Uniform Manifold Approximation and Projection (UMAP) plots, to visualize groups of transcriptionally distinct cell types (Becht et al., 2018). This pipeline identified 21 dusters of cells in both protocol 1 (FIG. 2C) and protocol 3 (FIG. 2D). In both conditions, ~30% of cells identify as being stressed; they cluster separately and display <2000 RNA counts (FIGS. 2C, 2D, 9A, 9B). ~2-4% cells are pluripotent stem cells, marked by Sox2, Pou5f1 (Oct4) and Nanog expression, while 5-8% cells are non-neural, either of mesodermal or cardiac neural crest identity, expressing Twist1, Runx2, and Hand2 (Han et al., 2021; Soldatov et al., 2019; Vincentz et al., 2013) (FIGS. 2C, 2D, 9A, 9B). […]

Assay [1] deals with mESCs derived spinal NPCs. The assay can be described thus: Sufficiency of Wnt ligands or CHIR for dI fates (RT-qPCR at day 9). The class given is cell-based, mouse. The procedure: The mouse ESC line, MM13, was routinely maintained in ES cell media (DMEM+20% FBS) with 100u/ml of mouse leukocyte inducing factor (LIF). […] To prepare cells for the differentiation, ESC colonies were dissociated with 0.25% trypsin and plated on gelatin coated plates at 1:10 dilution to reduce MEF transfer. Cells cultured on gelatin coated plates and allowed to proliferate for 1-2 days. To initiate differentiation, cells were plated on 0.1% gelatin coated 24-well CellBIND dishes (Corning) at 20,000 cells/ml density in 0.5 ml/well N2/B27 medium that contains 10 ng/ml basic fibroblast growth factor (bFGF). The N2/B27 medium contains 1:1 portions of Advanced Dulbecco's modified Eagle Media (DMEM) F12 (Hyclone) and Neurobasal media (Thermo Fisher Scientific) supplemented with 0.5×N2, 1×B27 supplement (with Vitamin A), 2 mM L-glutamine, 0.1 mM 2-mercaptoethanol (ME), and 1% BSA. On day 1, small colonies of cells can be observed attached to the bottom of the wells. On day 2, cells were supplemented with 10 ng/ml bFGF and 5 μM CHIR99021 for 24 hours to induce a neuromesodermal identity (Gouti et al., 2014). On day 3, media was changed as follows: for protocol 1, cells were exposed to 100 nM RA for 48 hrs. For protocol 2, 10 ng/ml human recombinant BMP4 (Thermo Fisher Scientific) was added concomitantly with 100 nM RA (RA+BMP4) for 48 hrs. For protocol 3, cells were exposed to 100 nM RA for 24 hrs, followed by a pulse of RA+BMP4 for another 24 hours. To induce terminal differentiation in all three conditions, the medium containing growth factors was replaced with basic N2/B27 medium at day 5, and cell allowed to differentiate to day 9. At the end of the differentiation, the cultures were fixed for immunohistochemical analysis or lysed to obtain RNA for RNA-Seq or quantitative reverse transcriptase PCR analysis.
Quantitative (a) RT-PCR analysis: RNA was isolated with RNeasy Mini Kit (Qiagen, cat no. 74104), and converted to cDNA using Superscript IV First Strand Synthesis kit (Thermo Fisher Scientific). qRT-PCR was performed using SYBR Green PCR Master Mix (Applied Biosystems) on Roche 480 Lightcycler (Roche). The relative fold expression was calculated using 2-AACt method of comparing the expression of the target gene with that of the housekeeping gene glyceraldehyde 3-phosphate dehydrogenase (Gapdh). All experiments were repeated at least 2-3 times (technical replicates) from at least two independent differentiations (biological replicates), and data is represented as mean±SEM.
We assessed these models, first by determining the effect of canonical Wnts (Wnt1, Wnt2, and Wnt3a), a non-canonical Wnt (Wnt9b) and a small molecule Wnt agonist (CHIR99021) on dI identity in the RA±BMP4 protocols. When Wnts were added in combination with RA, they were unable to induce the dorsal-most dIs by day 9 (FIG. 14A). […] Thus, Wnts are not sufficient to direct dI fate identity.

Each structure is given as a SMILES string. “And” between values parts separate entries of the source, which are not always exact repeats. Equal values may be shown once.

For `CC1=C(/C=C/C(C)=C/C=C/C(C)=C/C(=O)O)C(C)(C)CCC1` [RA, retinoic acid], in the assay with mESC-derived neurons, the “Tubb3+ (Tuj1+) neurons of unknown neural identity (no dI specific markers)” value is 8.5% and ~ 8.5%; the “Tubb3+ (Tuj1+) neurons that are dI1” value was 5% and 5.2%; the “Tubb3+ (Tuj1+) neurons that are dI2” value came to 5%; the “Tubb3+ (Tuj1+) neurons that are dI4” value was ~ 33% and 33%. Further, in the assay on mESC-derived neurons, the “Tubb3+ (Tuj1+) neurons that are dI5” value is 40.5% and 40.6%; the “Tubb3+ (Tuj1+) neurons that are dI6” value is 8% and 7.6%.

As to `Cc1c[nH]c(-c2cnc(NCCNc3ccc(C#N)cn3)nc2-c2ccc(Cl)cc2Cl)n1` [CHIR, CHIR99021], the “identity of the BMP4-mediated dI fates (Lhx2, Foxd3, IsI2)” value in assay [1] (RA+BMP4 protocol, Wnts 100 ng/ml or CHIR 5 μM for 24 hrs at day 5) was “no significant effect”. In addition, in assay [1] (added with RA at day 4 for 24 hrs, Wnts 100 ng/ml, CHIR 5 μM), the “induction of BMP4 dependent dI fates (Lhx2, Foxd3, IsI1)” value is “do not induce BMP4-dependent dI fates”.

Values taken from patent US20260275280A1, “DIRECTED DIFFERENTIATION PROTOCOLS TO DERIVE BONE FIDE SPINAL SENSORY INTERNEURONS” (THE REGENTS OF THE UNIVERSITY OF CALIFORNIA, priority 2022, published 2026).
